Test results taken from patent US5824657A, “Aminoacyl sulfamides for the treatment of hyperproliferative disorders” (priority 1997, dated 1998).

Key:
bacterial growth = settings: Osada and Isono 1985; cited from earlier work
[1] = test system: aminoacyl-tRNA synthetases (aaRS) isolated from HeLa cells; experiment: IC50 determination, aaRS charging and trichloroacetic acid precipitation assay, aaRS partially purified from HeLa cell extracts; assay type: biochemical; settings: preincubation 20 minutes at 25° C., reaction 5-20 minutes
Experimental: IC50 determinations for the aminoacyl-tRNA synthetases (aaRS) isolated from HeLa cells were carried out using a modification of the aaRS charging and trichloroacetic acid precipitation assay described previously (see examples: D. Kern et. al., Biochemie, 61, 1257-1272 (1979) and J. Gilbart et. al. Antimicrobial Agents and Chemotherapy, 37(1), 32-38 (1993)). […] For practical purposes, the minimal acceptable value is approximately 2000 cpm per 10 minute reaction. The final dilution of the HeLa extract in the assays for the aaRS enzymes varies from 50 to 1200-fold.
Test compounds were typically present as serial dilutions in concentrations ranging from 0.35 nM to 35 μM. Test compound solutions were prepared by dissolving test compounds in 100% dimethyl sulfoxide and diluting to the final concentration with 50 mM HEPES, pH 7.5. IC50 determinations were typically performed in duplicate with each experiment containing 4-8 concentrations of test compound and with duplicate controls containing no inhibitor.
The reaction was incubated at 25° C. for 5-20 minutes. At specified time points a 15 microliter aliquot was removed and added to a well of a Millipore filtration plate (Multiscreen-FB, MAFB NOB 10) containing 100 microliters of cold 5% (wt/vol) trichloroacetic acid. Trichloroacitic acid precipitable material was collected by filtration on a Millipore Multiscreen filtration station, washed twice with cold 5% trichloroacetic acid, twice with water, and dried. Plates were typically allowed to air dry for several hours or baked at 50° C. in a vacuum oven for 30 minutes. The radioactivity on the dried plates was quantitated by the addition of Packard Microscint-20 to the wells and counting with a Packard TopCount scintillation counter.
Inhibitor activity typically was reported as a percentage of the control aaRS activity. […] The IC50 (in nM, Hela Cells) values of representative compounds of the present invention are listed in column 5 of Table I.

[2] = test system: human epidermoid carcinoma cell line A-253 (ATCC HTB 41); experiment: MTT assay, human epidermoid carcinoma cell line; assay type: cell-based; settings: A253, MTT assay, exposure 72 hours, plot extended by eye for compounds active at lowest dose, read-out: IC50 Human Epidermoid Carcinoma Cells ATCC # HTB 41
Experimental: The MTT assay was used as a model to measure the inhibitory effects of the compounds of Formula I. The MTT assay is considered the most convenient modern assay for the determination of cell viability and cell proliferation. An MTT assay kit is commercially available (Chemicon International Inc., Temecula, Calif.). The MTT assay was performed according to manufacturer's instructions as outlined below.
A human epidermoid carcinoma cell line, designated as A-253 (ATCC HTB 41), was obtained in frozen vials from the American Type Culture Collection, Rockville, Md. Monolayer cultures were established from the vials by growth in RPMI 1640 medium supplemented with 10% fetal bovine serum (heat-inactivated), 2 mM L-glutamine, and pen-strep (100 units/ml; 100 μg/ml). The cultures were incubated at 37±1.5° C. in 5±1% CO2 in humidified air and were passaged weekly to avoid overgrowth. The laboratory cultures used for the present study were at passage seven after receipt of frozen stocks from ATCC.
Compounds of Formula I in powder form were stored at room temperature in plastic micro centrifuge tubes. Each tube was placed in a plastic bag containing desiccant. Each test compound was prepared as a 2 mg/ml solution in RPMI 1640 medium (non-supplemented) on the day of use, and the appropriate dilutions were prepared with the same vehicle.
Each compound was handled by sterile techniques in Class II, Type B biological safety cabinets.
The reference control compound was methotrexate at concentrations of 0.5 μg/ml to 50 μg/ml. A 1 mg/ml stock was prepared on the day of dosing and diluted to the appropriate concentrations using RPMI 1640 medium (non-supplemented).
A blank control was included in the MTT assay in order to determine the absorbance associated with the absence of any cells. This control was RPMI 1640 culture medium carried through the same procedures used to culture the cells in the microwell plates and to conduct the MTT assay color development. The microwell plate reader was zeroed against the blank control prior to recording the absorbance in the test wells.
Laboratory monolayer cultures of A-253 cells were trypsinized and seeded at a concentration of 24,000 cells in 0.05 ml of complete RPMI 1640 culture medium per well in 96-well plates. Eight wells in a column were seeded for each test condition. The blank control was prepared by adding 0.05 ml of culture medium (no cells) to 8 wells in the first column of each plate. A separate microwell plate was used for each compound of Formula I.
The test compound treatments were initiated immediately after seeding the cells by adding 0.05 ml of treatment medium to each microwell. Ten different test compound concentrations were prepared in culture medium (without serum), and each concentration was applied to a volume of eight wells on the appropriate plate. The final concentrations in the wells were 1000, 500, 250, 100, 50, 25, 10, 5, 2.5, and 1 μg/ml.
An untreated (zero-dose) condition was included as a column of 8 wells on each plate. The zero-dose and blank control wells received 0.05 ml of culture medium (without serum). The microwell plates were placed in an incubator at 37±1.5° C. in 5% CO2 in humidified air for an exposure period of 72±0.5 hours.
After the exposure period, 0.1 ml of MTT dye solution (0.5 mg/ml in serum free RPMI 1640 medium) was added to each micowell. The cultures were returned to the incubator for 2±0.1 hours. Then the medium was removed from each well and placed into a clean microwell plate for temporary storage. A volume of 0.1 ml of color development solution (Solution C, isopropanol with 0.04M HCl, Chemicon MTT Assay kit, Chemicon International Inc., Temecula, Calif.) was added to each new microwell. The contents were carefully mixed and allowed to sit at room temperature for approximately 1 hour. The medium that was saved from each microwell then was pipetted back into the well from which it originally came. […]

[3] = test system: normal human skin fibroblasts cell line ATCC CRL 1501; experiment: MTT assay, normal skin fibroblasts; assay type: cell-based; settings: Skin fibroblast, similar manner to HTB 41 assay
Experimental: The MTT assay was used as a model to measure the inhibitory effects of the compounds of Formula I. The MTT assay is considered the most convenient modern assay for the determination of cell viability and cell proliferation. […] The MTT assay was performed according to manufacturer's instructions as outlined below.
The cultures were returned to the incubator for 2±0.1 hours. Then the medium was removed from each well and placed into a clean microwell plate for temporary storage. A volume of 0.1 ml of color development solution (Solution C, isopropanol with 0.04M HCl, Chemicon MTT Assay kit, Chemicon International Inc., Temecula, Calif.) was added to each new microwell. […] The absorbance at 540 nm wavelength was determined in a microwell plate reader within two hours of the final preparation of the plates.
The absorbance at 540 nm was recorded for each well by the microwell plate reader after the instrument was zeroed against the blank controls for each plate. The mean absorbance for each test condition was calculated and compared to the mean absorbance for the zero-dose wells in order to obtain percent values. […]

[4] = assay type: in vitro ADME, human
Experimental: Five formulations of Compound XIV were prepared for in vitro study. The formulations are represented in Table III
Franz static diffusion chambers were filled with a 4% BSA isotonic buffered saline and equilibrated to a temperature of 37° C. by a circulating water pump. Excised human cadaver skin (~0.2 mm thickness), which is either intact or tape-stripped, is placed onto each chamber.
The test formulations containing non-radioactive Compound XIV were spiked with tritiated Compound XIV. The specific radioactivity was about 0.05 μCi/mg test formulation. Spiked formulations were applied to the skin surface. The specific radioactivity in the stratum corneum, epidermis, dermis and the reservoir were measured at 1, 3, 6 and 24 h time points by liquid scintillation counting, to investigate cumulative penetration at each time point. The specific activity is expressed as a percentage relative to the total recovery from the reservoir, skin wipes, and the respective skin layers at the end of each experiment.
Each of the five formulations were tested on intact skin (5 replicates each) and tape-stripped skin (only in one diffusion cell) to investigate cumulative penetration at 0, 1, 3, 6, and 24 hours and tissue recovery was measured at 24 hours. […]

[5] = Acute toxicity in the mouse, intraperitoneal
Experimental: Six groups containing 5 CD-1 female mice (Charles River Lab, Mass.) weighing 19-23 g were used in the experiment. Water and Agway rodent chow were provided ad libitum throughout the study. The laboratory animals were handled according to the institutional animal husbandry Standard Operating Procedures.
The solution was filtered with 0.2 μm Nalgene syringe filter and then further diluted serially with normal saline by 5-fold (0.6 ml to 3.0 ml) to 0.016 mg/ml. Group 1 animals were injected intraperitoneally (i.p.) with 10 ml/kg normal saline as negative controls. Groups 2 to 6 were given Compound XIV i.p. at 100, 20, 4, 0.8 and 0.16 mg/kg, respectively.
The LD50 of the compound was calculated by the Method of Probits (See Probit Analysis, 3rd Edition, D. J. Finney, Cambridge University Press, Cambridge, 1971). All surviving animals were sacrificed after the last observation on seventh day post-treatment.

SMILES	inhibition of bacterial growth (bacterial growth)	IC50 [1] [nM]	IC50 [2] [µM]	IC50 [3] [µM]	penetration of target tissue, epidermis [4]	mortality ([5]; i.p. 100 mg/kg (group 2))	95% confidence limit of the LD50 ([5]; mouse, in vivo, ip) [mg/kg]	LD50 at 168 h ([5]; mouse, in vivo, ip) [mg/kg]	tolerability ([5]; mouse, in vivo, ip)	body weight loss after injection ([5]; mouse, in vivo, ip, 20 mg/kg)	symptoms after dosing ([5]; mouse, in vivo, ip, 20 mg/kg)	symptoms after dosing ([5]; mouse, in vivo, ip, 100 mg/kg)
C[C@H](N)C(=O)NS(=O)(=O)OC[C@H]1O[C@@H](n2cnc3c(N)nc(Cl)nc32)[C@H](O)[C@@H]1O [ascamycin]	ineffective inhibitor against bacterial growth	–	–	–	–	–	–	–	–	–	–	–
Nc1ncnc2c1ncn2[C@@H]1O[C@H](CNS(=O)(=O)NC(=O)[C@@H](N)Cc2ccccc2)[C@@H](O)[C@H]1O [Compound XIV, 5'-deoxy-adenosine 5'-N-(N-L-phenylalanyl)sulfamide]	–	5	0.53	5.58	penetrates the target tissue, epidermis, in significant concentration at 6 hours and levels are generally increased at 24 hours	Most of the group 2 mice died between 8 to 24 hours after injection	24 to 63	44	a high dose of Compound XIV was tolerated	about 10%	no unusual symptoms observed	showed loose hair starting at 3-4 hours after dosing and they also lost their appetite and became less active
